Experimental data as given in the supplement of paper PMC10307832.

Columns and labels:
Test in all cases: relative viability (nuclei count vs DMSO), 5 days (fraction); higher = more cells survive
Docetaxel = compound: CC(=O)O[C@@]12CO[C@@H]1C[C@H](O)[C@@]1(C)C(=O)[C@H](O)C3=C(C)[C@@H](OC(=O)[C@H](O)[C@@H](NC(=O)OC(C)(C)C)c4ccccc4)C[C@@](O)([C@@H](OC(=O)c4ccccc4)[C@H]21)C3(C)C [Docetaxel]
Outline: (§1)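 Cells of lung cancer lines were placed in 1536-well plates and kept overnight at 37 °C. Pinning then delivered five library-drug doses (not always all listed), spaced by √10, onto plates anchored with vehicle, and the cells were left 5 days without changing medium. One step fixed, permeabilised and stained them with Hoechst, and MetaXpress counted nuclei in 4× images. Viability, as a median over plates, is treated-well nuclei divided by vehicle-well nuclei, with acceptance only at control CV below 25% and at least one doubling.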

Tivozanib = compound: COc1cc2nccc(Oc3ccc(NC(=O)Nc4cc(C)on4)c(Cl)c3)c2cc1OC [Tivozanib]
Outline: as §1

[1] = compound: Cc1cnc(-c2cnc(NCCNc3ccc(C#N)cn3)nc2-c2ccc(Cl)cc2Cl)[nH]1
Outline: as §1

JQ1 = compound: Cc1sc2c(c1C)C(c1ccc(Cl)cc1)=N[C@@H](CC(=O)OC(C)(C)C)c1nnc(C)n1-2 [JQ1]
Outline: as §1

Cytarabine = compound: Nc1ccn([C@@H]2O[C@H](CO)[C@@H](O)[C@@H]2O)c(=O)n1 [Cytarabine]
Outline: as §1

CPI-613 = compound: O=C(O)CCCCC(CCSCc1ccccc1)SCc1ccccc1 [CPI-613]
Outline: as §1

Pimozide = compound: O=c1[nH]c2ccccc2n1C1CCN(CCCC(c2ccc(F)cc2)c2ccc(F)cc2)CC1 [Pimozide]
Outline: as §1

Row | Cell Line | relative viability (Docetaxel; 0.0002 µM) | relative viability (Docetaxel; 0.000632 µM) | relative viability (Docetaxel; 0.002 µM) | relative viability (Docetaxel; 0.006325 µM) | relative viability (Docetaxel; 0.02 µM) | relative viability (Tivozanib; 0.005 µM) | relative viability (Tivozanib; 0.01581 µM) | relative viability (Tivozanib; 0.05 µM) | relative viability (Tivozanib; 0.1581 µM) | relative viability (Tivozanib; 0.5 µM) | relative viability ([1]; 0.08 µM) | relative viability ([1]; 0.253 µM) | relative viability ([1]; 0.8 µM) | relative viability ([1]; 2.53 µM) | relative viability (JQ1; 0.04 µM) | relative viability (JQ1; 0.1265 µM) | relative viability (JQ1; 0.4 µM) | relative viability (JQ1; 1.265 µM) | relative viability (JQ1; 4 µM) | relative viability (Cytarabine; 0.005 µM) | relative viability (Cytarabine; 0.01581 µM) | relative viability (Cytarabine; 0.05 µM) | relative viability (Cytarabine; 0.1581 µM) | relative viability (Cytarabine; 0.5 µM) | relative viability (CPI-613; 5 µM) | relative viability (CPI-613; 15.81 µM) | relative viability (CPI-613; 50 µM) | relative viability (CPI-613; 158.11 µM) | relative viability (CPI-613; 500 µM) | relative viability (Pimozide; 0.08 µM) | relative viability (Pimozide; 0.253 µM) | relative viability (Pimozide; 0.8 µM) | relative viability (Pimozide; 2.53 µM) | relative viability (Pimozide; 8 µM)
1 | NCI-H1437 | 0.914 | 0.765 | 0.457 | 0.281 | 0.158 | 0.968 | 0.971 | 0.988 | 0.982 | 0.88 | 1.02 | 0.928 | 0.98 | 1 | 0.92 | 0.792 | 0.762 | 0.484 | 0.415 | 0.79 | 0.64 | 0.494 | 0.243 | 0.206 | 0.96 | 0.898 | 0.948 | 0.345 | 0.0955 | 0.991 | 0.969 | 0.959 | 0.904 | 0.723
2 | NCI-H2170 | 1.01 | 0.999 | 0.828 | 0.271 | 0.201 | 0.928 | 0.923 | 0.956 |  | 1.02 | 1.1 | 0.655 | 0.989 | 0.958 | 1 | 0.778 | 0.908 | 0.711 | 0.503 | 0.822 | 0.741 | 0.688 | 0.463 | 0.402 | 0.939 | 0.903 | 0.998 | 0.802 | 0.301 | 1.05 | 0.94 | 0.956 | 0.945 | 0.947
3 | NCI-H1792 | 0.715 | 0.677 | 0.291 | 0.213 | 0.131 | 0.893 | 0.912 | 1.11 | 0.51 | 0.762 | 1.02 | 0.793 | 0.923 | 0.951 | 0.801 | 0.605 | 0.844 | 0.408 | 0.156 |  | 0.908 | 0.45 | 0.411 | 0.231 | 0.896 | 0.793 | 0.956 | 0.651 | 0.511 | 0.936 | 0.843 | 0.62 | 0.81 | 0.763
4 | NCI-H1703 | 0.891 | 0.869 | 0.274 | 0.163 | 0.127 | 0.36 | 0.271 | 0.311 | 0.211 | 0.215 | 1.14 | 0.901 | 1.01 | 1.28 | 0.865 | 0.675 | 0.639 | 0.431 | 0.405 | 0.729 | 0.393 | 0.288 | 0.16 | 0.153 | 1.04 | 0.836 | 0.749 | 0.585 | 0.406 | 0.899 | 0.916 | 0.913 | 0.95 | 0.892
5 | COR-L23 | 0.963 | 0.904 | 0.514 | 0.184 | 0.141 | 1.01 | 0.989 | 1.06 | 1.09 | 0.841 | 1.08 | 0.897 | 1.04 | 0.934 | 0.965 | 0.848 | 1.02 | 0.54 | 0.549 | 1.06 | 0.874 | 0.656 | 0.234 | 0.172 | 1 | 0.946 | 1.03 | 0.415 | 0.0149 | 1.08 | 1.03 | 0.949 | 0.981 | 0.912
6 | NCI-H2347 | 0.973 | 0.952 | 0.726 | 0.52 | 0.459 | 0.95 | 0.997 | 1.17 | 0.939 | 1 | 1.08 | 0.894 | 0.958 | 1.09 | 0.992 | 0.771 | 0.886 | 0.709 | 0.518 | 1.07 | 0.914 | 0.825 | 0.658 | 0.661 | 1.03 | 0.866 | 0.96 | 0.776 | 0.844 | 0.911 | 0.957 | 0.828 | 0.962 | 0.986
7 | NCI-H1623 | 0.889 | 0.957 | 0.601 | 0.424 | 0.264 | 1.05 | 0.986 | 1.03 | 0.714 | 0.986 | 1.06 | 0.957 | 0.921 | 0.947 | 0.961 | 0.82 | 0.908 | 0.557 | 0.54 | 0.828 | 0.592 | 0.41 | 0.25 | 0.216 | 1.07 | 0.99 | 1.13 | 0.743 | 0.867 | 0.675 | 0.916 | 0.902 | 0.939 | 0.932
8 | NCI-H358 | 0.768 | 0.463 | 0.251 | 0.209 | 0.138 | 0.898 | 0.944 | 1.1 | 0.915 | 1.01 | 0.97 | 0.818 | 0.822 | 0.796 | 0.982 | 0.976 | 0.941 | 0.638 | 0.461 | 0.912 | 0.757 | 0.509 | 0.2 | 0.161 | 0.876 | 0.949 | 0.901 | 0.495 | 0.038 | 0.796 | 1.02 | 0.876 | 0.943 | 0.925
9 | LXF-289 | 1 | 0.731 | 0.473 | 0.171 | 0.128 | 0.998 | 0.935 | 0.996 | 1.1 | 0.956 | 1.01 | 0.864 | 1.06 | 1.1 | 0.984 | 0.965 | 0.981 | 0.936 | 0.671 | 0.93 | 1 | 0.883 | 0.563 | 0.305 | 0.922 | 0.958 | 0.992 | 0.78 | 0.0678 | 0.963 | 1 | 0.917 | 0.998 | 0.923
